Measurements: patent US8946234B2, “Halogen-substituted compounds” (Bayer CropScience AG, priority 2008, dated 2015)

Assay: log P from HPLC-MS, no method note printed
Type: physicochemical
Conditions: method not given

Compound | chromatographic logP
Cn1nc(OC(F)F)cc1C(=O)O [3-(Difluoromethoxy)-1-methyl-1H-pyrazole-5-carboxylic acid] | 1.15
Cn1nc(C(F)F)c(C(F)(F)F)c1C(=O)O [3-(Difluoromethyl)-1-methyl-4-(trifluoromethyl)-1H-pyrazole-5-carboxylic acid] | 1.1
Cn1nc(C2CC2)c(C(F)(F)F)c1C(=O)O [3-Cyclopropyl-1-methyl-4-(trifluoromethyl)-1H-pyrazole-5-carboxylic acid] | 1.74
Cn1nc(C(O)C2CC2)c(C(F)(F)F)c1C(=O)O (centres unmarked) [3-[Cyclopropyl(hydroxy)methyl]-1-methyl-4-(trifluoromethyl)-1H-pyrazole-5-carboxylic acid] | 0.72
O=C(O)c1cnc(C(F)(F)F)nc1-c1ccccn1 [4-(Pyridin-2-yl)-2-(trifluoromethyl)pyrimidine-5-carboxylic acid] | 1.5
Cn1nc(OC(F)F)c(Br)c1C(=O)O [4-Bromo-3-(difluoromethoxy)-1-methyl-1H-pyrazole-5-carboxylic acid] | 1.52
Cn1nc(C2CC2)c(Br)c1C(=O)O [4-Bromo-3-cyclopropyl-1-methyl-1H-pyrazole-5-carboxylic acid] | 1.76
Cn1nc(OC(F)F)c(Cl)c1C(=O)O [4-Chloro-3-(difluoromethoxy)-1-methyl-1H-pyrazole-5-carboxylic acid] | 1.5
O=C(O)c1nccc(Cl)c1C(F)(F)F [4-Chloro-3-(trifluoromethyl)pyridine-2-carboxylic acid] | 1.16
Cn1nc(OC(F)F)c(I)c1C(=O)O [4-Iodo-3-(difluoromethoxy)-1-methyl-1H-pyrazole-5-carboxylic acid] | 1.64
Cn1nc(C(F)(F)C(F)(F)F)c(C(F)(F)F)c1SCc1ccccc1 [5-(Benzylsulphanyl)-1-methyl-3-(pentafluoroethyl)-4-(trifluoromethyl)-1H-pyrazole] | 5
CCOC(=O)c1cnc(C(F)(F)C(F)(F)F)nc1C(F)(F)C(F)(F)F [Ethyl 2,4-bis(pentafluoroethyl)pyrimidine-5-carboxylate] | 4.41
CCOC(=O)c1sc(C(F)(F)C(F)(F)F)nc1C(F)(F)F [Ethyl 2-(pentafluoroethyl)-4-(trifluoromethyl)-1,3-thiazole-5-carboxylate] | 4.36
CCOC(=O)c1c(I)c(C2CC2)nn1C [Ethyl 3-cyclopropyl-4-iodo-1-methyl-1H-pyrazole-5-carboxylate] | 3.56
CCOC(=O)c1cnc(C(F)(F)F)nc1-c1ccccn1 [Ethyl 4-(pyridin-2-yl)-2-(trifluoromethyl)pyrimidine-5-carboxylate] | 3.09
COC(=O)c1cc(OC(F)F)nn1C [Methyl-3-(difluoromethoxy)-1-methyl-1H-pyrazole-5-carboxylate] | 2.04

Results, then the compound that gave them:

chromatographic logP | Compound
2.03 | Cn1nc(OCC(F)(F)F)c(Br)c1C(=O)O [4-Bromo-1-methyl-3-(2,2,2-trifluoroethoxy)-1H-pyrazole-5-carboxylic acid]
2 | Cn1nc(OCC(F)(F)F)c(Cl)c1C(=O)O [4-Chloro-1-methyl-3-(2,2,2-trifluoroethoxy)-1H-pyrazole-5-carboxylic acid]
1.83 | Cn1nc(OCC(F)(F)F)c(F)c1C(=O)O [4-Fluoro-1-methyl-3-(2,2,2-trifluoroethoxy)-1H-pyrazole-5-carboxylic acid]
2.11 | Cn1nc(OCC(F)(F)F)c(I)c1C(=O)O [4-Iodo-1-methyl-3-(2,2,2-trifluoroethoxy)-1H-pyrazole-5-carboxylic acid]
3.55 | CCOC(=O)c1c(C(F)(F)F)c(C(C)(C)F)nn1C [Ethyl 3-(2-fluoropropan-2-yl)-1-methyl-4-(trifluoromethyl)-1H-pyrazole-5-carboxylate]
2.33 | CCOC(=O)c1c(C(F)(F)F)c(C(C)(C)O)nn1C [Ethyl 3-(2-hydroxypropan-2-yl)-1-methyl-4-(trifluoromethyl)-1H-pyrazole-5-carboxylate]
3.05 | CCOC(=O)c1c(C(F)(F)F)c(C(F)F)nn1C [Ethyl 3-(difluoromethyl)-1-methyl-4-(trifluoromethyl)-1H-pyrazole-5-carboxylate]
2.38 | CCOC(=O)c1c(C(F)(F)F)c(C(O)C2CC2)nn1C (centres unmarked) [Ethyl 3-[cyclopropyl(hydroxy)methyl]-1-methyl-4-(trifluoromethyl)-1H-pyrazole-5-carboxylate]
3.66 | CCOC(=O)c1c(C(F)(F)F)c(C2CC2)nn1C [Ethyl 3-cyclopropyl-1-methyl-4-(trifluoromethyl)-1H-pyrazole-5-carboxylate]
2.4 | CCOC(=O)c1c(C(F)(F)F)c(C=O)nn1C [Ethyl 3-formyl-1-methyl-4-(trifluoromethyl)-1H-pyrazole-5-carboxylate]
1.74 | CCOC(=O)c1c(C(F)(F)F)c(CO)nn1C [Ethyl-3-(hydroxymethyl)-1-methyl-4-(trifluoromethyl)-1H-pyrazole-5-carboxylate]
2.61 | COC(=O)c1cc(OCC(F)(F)F)nn1C [Methyl 1-methyl-3-(2,2,2-trifluoroethoxy)-1H-pyrazole-5-carboxylate]
3.82 | COC(=O)c1cc(-c2ccc(C(F)(F)F)cc2)nn1C [Methyl 1-methyl-3-[4-(trifluoromethyl)phenyl]-1H-pyrazole-5-carboxylate]
4.14 | COC(=O)c1c(C(F)(F)F)c(-c2ccc(C(F)(F)F)cc2)nn1C [Methyl 1-methyl-4-(trifluoromethyl)-3-[4-(trifluoromethyl)phenyl]-1H-pyrazole-5-carboxylate]
2.69 | COC(=O)c1c(I)c(OC(F)F)nn1C [Methyl 3-(difluoromethoxy)-4-iodo-1-methyl-1H-pyrazole-5-carboxylate]
3.14 | COC(=O)c1c(Br)c(OCC(F)(F)F)nn1C [Methyl 4-bromo-1-methyl-3-(2,2,2-trifluoroethoxy)-1H-pyrazole-5-carboxy late]
2.62 | COC(=O)c1c(Br)c(OC(F)F)nn1C [Methyl 4-bromo-3-(difluoromethoxy)-1-methyl-1H-pyrazole-5-carboxylate]
3.08 | COC(=O)c1c(Cl)c(OCC(F)(F)F)nn1C [Methyl 4-chloro-1-methyl-3-(2,2,2-trifluoroethoxy)-1H-pyrazole-5-carboxylate]
2.57 | COC(=O)c1c(Cl)c(OC(F)F)nn1C [Methyl 4-chloro-3-(difluoromethoxy)-1-methyl-1H-pyrazole-5-carboxylate]
2.79 | COC(=O)c1c(F)c(OCC(F)(F)F)nn1C [Methyl 4-fluoro-1-methyl-3-(2,2,2-trifluoroethoxy)-1H-pyrazole-5-carboxylate]
3.17 | COC(=O)c1c(I)c(OCC(F)(F)F)nn1C [Methyl 4-iodo-1-methyl-3-(2,2,2-trifluoroethoxy)-1H-pyrazole-5-carboxylate]
4.23 | COC(=O)c1c(I)c(-c2ccc(C(F)(F)F)cc2)nn1C [Methyl 4-iodo-1-methyl-3-[4-(trifluoromethyl)phenyl]-1H-pyrazole-5-carboxylate]
